Literature values in patent publication US20050272804A1, “Methods of delaying Alzheimer's disease progression using a beta-amyloid precursor protein inhibitor and a HMG CoA reductase inhibitor” (priority 2004, published 2005).

Experiments:
[1] = system: neuronal NOS (nNOS); conditions: Tg mice, 2.5 mg/kg, i.p., brain extracts
[2] = system: NOS; conditions: Tg mice, 2.5 mg/kg, i.p., brain extracts
[3] = target: T1, AChE (Rattus norvegicus, UniProt P37136); conditions: rats, after phenserine administration
T1 construct: from tissue
T1 sequence (P37136 32-614): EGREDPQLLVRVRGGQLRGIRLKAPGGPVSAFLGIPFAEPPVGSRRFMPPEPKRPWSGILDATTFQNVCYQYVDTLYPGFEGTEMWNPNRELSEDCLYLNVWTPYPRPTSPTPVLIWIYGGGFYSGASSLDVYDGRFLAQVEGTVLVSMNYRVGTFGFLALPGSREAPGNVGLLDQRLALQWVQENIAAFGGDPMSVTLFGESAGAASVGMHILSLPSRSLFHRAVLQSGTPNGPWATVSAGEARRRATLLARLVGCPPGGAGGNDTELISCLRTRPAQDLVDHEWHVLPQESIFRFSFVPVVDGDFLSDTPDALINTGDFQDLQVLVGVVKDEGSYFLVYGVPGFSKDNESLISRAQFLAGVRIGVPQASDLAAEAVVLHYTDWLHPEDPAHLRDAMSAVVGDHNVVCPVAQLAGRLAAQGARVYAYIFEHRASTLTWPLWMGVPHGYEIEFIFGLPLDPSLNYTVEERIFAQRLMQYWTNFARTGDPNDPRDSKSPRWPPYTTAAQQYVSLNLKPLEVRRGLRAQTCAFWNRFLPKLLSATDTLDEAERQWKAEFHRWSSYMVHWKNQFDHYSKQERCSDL

[4] = system: Aβ; conditions: Tg mice, 2.5 mg/kg, i.p.
[5] = system: brain extracellular acetylcholine (ACh); conditions: striatal microdialysis, conscious freely-moving rats
[6] = rats, i.v. dosing
[7] = system: cholinesterase

SMILES | levels of nNOS protein [1] | NOS activity, treated vs control Tg groups [2] | half-life of AChE inhibition [3] [h] | inhibition of AChE [3] [%] | lowering of brain Aβ levels [4] | rise in brain ACh levels [5] | brain drug levels relative to plasma [6] [fold] | time to peak drug level ([6]; brain and plasma) [min] | anticholinesterase activity [7]
CN1CC[C@@]2(C)c3cc(OC(=O)Nc4ccccc4)ccc3N(C)C12 (single isomer, unassigned) [phenserine] | increased | no significant difference | > 8.25 | > 70 | approximately 50% | greater than 3 fold | 10 | ≤ 5 | –
CN1CC[C@]2(C)c3cc(OC(=O)Nc4ccccc4)ccc3N(C)C12 (single isomer, unassigned; (+)) [(+)-Penserine] | – | – | – | – | – | – | – | – | minimal
